What all share (assay type): cell-based
For test [1], the system named is primary human fibroblasts derived from IPF patients (LL29 cells) treated with TGF-β1. The experiment in a line: Inhibition of the fibrotic process: αSMA staining in TGF-β1 treated primary human fibroblasts from IPF patients (LL29 cells). Particulars: Fibroblast, 96 h, TGF-β1 20 ng/mL, 4 days, % αSMA positive cells. An excerpt: Representative compounds were screened using primary human fibroblasts (derived from IPF patients) treated with TGF-β1 to determine their ability to inhibit the fibrotic process.
Primary human fibroblasts derived from IPF patients (LL29 cells) [^1Xiaoqiu Liu, et. al., “Fibrotic Lung Fibroblasts Show Blunted Inhibition by cAMP Due to Deficient cAMP Response Element-Binding Protein Phosphorylation”, Journal of Pharmacology and Experimental Therapeutics (2005), 315(2), 678-687; ^2Watts, K. L., et. al., “RhoA signaling modulates cyclin D1 expression in human lung fibroblasts; implications for idiopathic pulmonary fibrosis”, Respiratory Research (2006), 7(1), 88] were obtained from American Type Culture Collection (ATCC) and expanded in F12 medium supplemented with 15% Fetal Bovine Serum and Penicillin/Streptomycin.
Each compound was dissolved in DMSO as a 10 mM stock and used to prepare compound source plates. Serial dilution (1:2, 11-point dose-response curves from 10 μM to 1.87 nM) and compound transfer was performed using the ECHO 550 (Labcyte, Sunnyvale, Calif.) into 384-well clear bottom assay plates (Greiner Bio-One) with appropriate DMSO backfill for a final DMSO concentration of 0.1%. LL29 cells are plated at 1,500 cells/well in 80 μL/well F12 medium supplemented with 1% Fetal Bovine Serum. One hour after addition of the cells, TGF-β1 (Peprotech; 20 ng/mL) was added to the plates to induce fibrosis (ref. 1 and 2 above). Wells treated with TGF-β1 and containing DMSO were used as controls. Cells were incubated at 37° C. and 5% CO2 for 4 days. Following incubation for 4 days, SYTOX green nucleic acid stain (Life Technologies [Thermo Fisher Scientific]) was added to the wells at a final concentration of 1 μM and incubated at room temperature for 30 min. Cells were then fixed using 4% formaldehyde (Electron Microscopy Sciences), washed 3 times with PBS followed by blocking and permeabilization using 3% Bovine Serum Albumin (BSA; Sigma) and 0.3% Triton X-100 (Sigma) in PBS. Cells were then stained with antibody specific to α-smooth muscle actin (αSMA; Abcam) (ref. 1 and 2 above) in 3% Bovine Serum Albumin (BSA; Sigma) and 0.3% Triton X-100 (Sigma) in PBS, and incubated overnight at 4° C. Cells were then washed 3 times with PBS, followed by incubation with Alexa Flor-647 conjugated secondary antibody (Life Technologies [Thermo Fisher Scientific]) and DAPI at room temperature for 1 hour. Cells were then washed 3 times with PBS and plates were sealed for imaging. αSMA staining was imaged by excitation at 630 nm and emission at 665 nm and quantified using the Compartmental Analysis program on the CellInsight CX5 (Thermo Scientific). Dead or apoptotic cells were excluded from analysis based on positive SYTOX green staining. % of total cells positive for αSMA were counted in each well and normalized to the average of 11 wells treated with TGF-β1 on the same plate using Dotmatics' Studies Software. The normalized averages (fold change over untreated) of 3 replicate wells for each compound concentration were used to create dose-responses curves and EC50 values were calculated using non-linear regression curve fit in the Dotmatics' Studies Software. For EC50 of >10 μM, the percent inhibition at 10 μM is provided.

A further test relates to IL-6 (THP-1 cells). The experiment in a line: IL-6 inhibition in LPS-stimulated THP-1 human monocyte cells (HTRF). Particulars: LPS 500 ng/mL, 22 hours, IL6 HTRF. The method, then: Human monocyte cell line (THP-1 cells; Catalog # TIB-202, ATCC, Manassas, Va.) were cultured in Roswell Park Memorial Institute (RPMI) 1640 Medium (Catalog #21870-100, Buffalo, N.Y.) with 1% L-glutamine, 1% HEPES, 1% Sodium Pyruvate, 2% Sodium Bicarbonate supplemented with 100 units/mL penicillin, 50 μg/mL streptomycin, 2-mercaptoethanol (0.05 mM) [basal medium] and 10% fetal bovine serum (Catalog #16140089, Life Technologies, Carlsbad, Calif.) at 37° C. and 5% CO2.
THP-1 cells were cultured in basal media with 1% FBS for 24 hours before the start of the assay. Each compound was dissolved in DMSO as a 10 mM stock and used to prepare compound source plates. Serial dilution (1:3, 10-point dose-response curves starting from 10 μM) and compound transfer was performed using the ECHO 550 (Labcyte, Sunnyvale, Calif.) into 384-well white low volume assay plates (Greiner Bio-One) with appropriate DMSO backfill for a final DMSO concentration of 0.1%. THP-1 cells were plated at 5000 cells/well in the 384-well plates and incubated at 37° C. for 2 h. 500 ng/mL of LPS was added after 2 hours and cells were incubated for another 22 hours at 37° C. Plates were spun in a centrifuge for 1 minute at […] and a mixture of anti-IL6 XL665, and anti-IL6 Cryptate diluted in reconstitution buffer (Cisbio Inc.) was added to each well. Following incubation for 3 hrs at room temperature, Homogeneous Time-Resolved Fluorescence (HTRF) was measured using the Envision (Perkin Elmer) at 665 nm and […]. The ratio of fluorescence at 665 nm to 620 nm was used as a readout for IL6 quantification. All samples were processed in duplicate. Readings were normalized to DMSO treated cells and normalized activities were utilized for EC50 calculations using the dose-response log (inhibitor) vs. response-variable slope (four parameters) nonlinear regression feature available in GraphPad Prism 5.0 (or Dotmatics). For EC50 of >10 μM, the percent inhibition at 10 μM is provided.

Test [2] concerns Wnt activity (Sp5-Luc reporter, SW480 colon carcinoma cells). The experiment in a line: Wnt activity screening assay: Sp5-Luc reporter gene in SW480 colon carcinoma cells. Particulars: Homo sapiens, overnight incubation, 10-point curve from 10 μM. An excerpt: The screening assay for Wnt activity is described as follows. Reporter cell lines can be generated by stably transducing cancer cell lines (e.g., colon cancer) or primary cells (e.g., IEC-6 intestinal cells) with a lentiviral construct that includes a Wnt-responsive promoter driving expression of the firefly luciferase gene.
SW480 colon carcinoma cells were transduced with a lentiviral vector expressing luciferase with a human Sp5 promoter consisting of a sequence of eight TCF/LEF binding sites. SW480 cells stably expressing the Sp5-Luc reporter gene and a hygromycin resistance gene were selected by treatment with 150 μg/mL of hygromycin for 7 days. These stably transduced SW480 cells were expanded in cell culture and used for all further screening activities. Each compound was dissolved in DMSO as a 10 mM stock and used to prepare compound source plates. Serial dilution (1:3, 10-point dose-response curves starting from 10 μM) and compound transfer was performed using the ECHO 550 (Labcyte, Sunnyvale, Calif.) into 384-well white solid bottom assay plates (Greiner Bio-One) with appropriate DMSO backfill for a final DMSO concentration of 0.1%. For Sp5-Luc reporter gene assays, the cells were plated at 4,000 cells/well in 384-well plates with medium containing 1% fetal bovine serum and incubated overnight at 37° C. and 5% CO2. Following incubation, 20 μl of BrightGlo luminescence reagent (Promega) was added to each well of the 384-well assay plates. The plates were placed on an orbital shaker for 2 min and then luminescence was quantified using the Envision (Perkin Elmer) plate reader. Readings were normalized to DMSO only treated cells, and normalized activities were utilized for EC50 calculations using the dose-response log (inhibitor) vs. response-variable slope (four parameters) nonlinear regression feature available in GraphPad Prism 5.0 (or Dotmatics). For EC50 of >10 μM, the percent inhibition at 10 μM is provided.
Background: Reporter assays use an easily measured gene product as a stand-in for the process of interest.

A further test concerns SW480 colon cancer cells. The experiment in a line: Cell viability assay (CellTiter-Blue), SW480 colon cancer cells. Particulars: Homo sapiens, 96 h, four days, CellTiter-Blue. Here is the method: Representative compounds were screened using the following assay procedure to assess the effect on cell viability as described below.
Each compound was dissolved in DMSO as a 10 mM stock and used to prepare compound source plates. Serial dilution (1:3, 8-point dose-response curves from 10 μM to 0.0045 μM) and compound transfer was performed using the ECHO 550 (Labcyte, Sunnyvale, Calif.) into 96-well clear bottom, black-walled plates (Corning—Costar).
Approximately 2×10^3 SW480 colon cancer cells were seeded into each well and allowed to incubate in the presence or absence of compound for four days at 37° C./5% CO2. Eight replicates of DMSO-treated cells served as controls and cells treated with compound were performed in duplicate.
After incubation, 20 μL of CellTiter-Blue (Promega) was added to each well allowed to incubate for approximately 3 hours. This reagent was a buffered solution which contains resazurin, metabolically active cells were able to reduce rezarurin (blue) into resorufin (pink) which was highly fluorescent. This measured fluorescence was used as a readout for cell viability.
After incubation, the plates were read at Ex 560 nm Em 590 nm (Cytation 3, BioTek). Dose-response curves were generated and EC50 concentration values were calculated using non-linear regression curve fit in the GraphPad Prism (San Diego, Calif.) or Dotmatics' Studies Software (Bishops Stortford, UK). For EC50 of >10 μM, the percent inhibition at 10 μM is provided.
For orientation: Alamar Blue is a resazurin reagent that responds to reducing activity.

Among the data in patent publication US10226453B2, “3-(1H-indol-2-yl)-1H-pyrazolo[4,3-B]pyridines and therapeutic uses thereof” (Samumed, LLC, priority 2015, dated 2019) are EC50 values, retold here.

With `Fc1cccc(-c2cccc3[nH]c(-c4n[nH]c5ccc(-c6cccnc6)nc45)cc23)c1` [Compound 4, 3-(4-(3-Fluorophenyl)-1H-indol-2-yl)-5-(pyridin-3-yl)-1H-pyrazolo[4,3-b] pyridine], the EC50 (usually the midpoint of the concentration-response curve) in test [1] is 974 nM; with IL-6 (THP-1 cells) it was 439 nM; in test [2], 209 nM; with SW480 colon cancer cells, 9660 nM.
With `O=C(Nc1cncc(-c2ccc3[nH]nc(-c4cc5c(-c6cccc(F)c6)cccc5[nH]4)c3n2)c1)C1CCCCC1` [Compound 23, N-(5-(3-(4-(3-Fluorophenyl)-1H-indol-2-yl)-1H-pyrazolo[4,3-b]pyridin-5-yl)pyridin-3-yl)cyclohexanecarboxamide], the EC50 in test [1] stood at 1280 nM; in the test on IL-6 (THP-1 cells) it was 1010 nM; in test [2] it was 1630 nM; with SW480 colon cancer cells, 6570 nM.
Taken in the same sequence, the figures for `Fc1cccc(-c2cccc3[nH]c(-c4n[nH]c5ccc(-c6cncc(CN7CCC(F)(F)C7)c6)nc45)cc23)c1` [Compound 26, 5-(5-((3,3-Difluoropyrrolidin-1-yl)methyl)pyridin-3-yl)-3-(4-(3-fluorophenyl)-1H-indol-2-yl)-1H-pyrazolo[4,3-b]pyridine] were 409 nM, 530 nM, 981 nM and 3110 nM.
For `Cc1ccncc1-c1ccc2[nH]nc(-c3cc4c(-c5ccc(F)cc5)cccc4[nH]3)c2n1` [Compound 33, 3-(4-(4-Fluorophenyl)-1H-indol-2-yl)-5-(4-methylpyridin-3-yl)-1H-pyrazolo [4,3-b]pyridine], the EC50 is 1230 nM in test [1], 388 nM in the test with IL-6 (THP-1 cells), 1020 nM in test [2] and 6740 nM in the test with SW480 colon cancer cells.
In the case of `CC(C)CC(=O)Nc1cncc(-c2ccc3[nH]nc(-c4cc5c(-c6ccccc6F)cccc5[nH]4)c3n2)c1` [Compound 58, N-(5-(3-(4-(2-Fluorophenyl)-1H-indol-2-yl)-1H-pyrazolo[4,3-b]pyridin-5-yl)pyridin-3-yl)-3-methylbutanamide], the EC50 in test [1] is 628 nM; in the test with IL-6 (THP-1 cells), 72 nM; in test [2] it was 254 nM; in the test on SW480 colon cancer cells, 1210 nM.
On to `O=C(Nc1cncc(-c2ccc3[nH]nc(-c4cc5c(-c6ccccc6F)cccc5[nH]4)c3n2)c1)C1CC1` [Compound 76, N-(5-(3-(4-(2-Fluorophenyl)-1H-indol-2-yl)-1H-pyrazolo[4,3-b]pyridin-5-yl)pyridin-3-yl)cyclopropanecarboxamide], for which the EC50 is 502 nM in test [1], 51 nM in the test on IL-6 (THP-1 cells), 164 nM in test [2] and 895 nM in the test with SW480 colon cancer cells.
Taken in the same sequence, the figures for `CC(C)Nc1cncc(-c2ccc3[nH]nc(-c4cc5c(-c6cccnc6)cccc5[nH]4)c3n2)c1` [Compound 96, N-Isopropyl-5-(3-(4-(pyridin-3-yl)-1H-indol-2-yl)-1H-pyrazolo[4,3-b]pyridin-5-yl)pyridin-3-amine] were 214 nM, 75 nM, 107 nM and 604 nM.
Taken in the same sequence, the figures for `c1cncc(-c2ccc3[nH]nc(-c4cc5c(N6CCCCC6)cccc5[nH]4)c3n2)c1` [Compound 172, 3-(4-(Piperidin-1-yl)-1H-indol-2-yl)-5-(pyridin-3-yl)-1H-pyrazolo[4,3-b] pyridine] were 295 nM, 126 nM, 253 nM and 2150 nM.
Take `CN(C)Cc1cncc(-c2ccc3[nH]nc(-c4cc5c(N6CCCCC6)cccc5[nH]4)c3n2)c1` [Compound 181, N,N-Dimethyl-1-(5-(3-(4-(piperidin-1-yl)-1H-indol-2-yl)-1H-pyrazolo[4,3-b]pyridin-5-yl)pyridin-3-yl)methanamine]: the EC50 came to 870 nM in test [1], 1520 nM in the test on IL-6 (THP-1 cells), 899 nM in test [2] and 3150 nM in the test on SW480 colon cancer cells.
For `c1cc(N2CCCCC2)c2cc(-c3n[nH]c4ccc(-c5cncnc5)nc34)[nH]c2c1` [Compound 195, 3-(4-(Piperidin-1-yl)-1H-indol-2-yl)-5-(pyrimidin-5-yl)-1H-pyrazolo[4,3-b] pyridine], the EC50 is 1280 nM in test [1], 31 nM in the test with IL-6 (THP-1 cells), 1180 nM in test [2] and 5590 nM in the test on SW480 colon cancer cells.
